Patent publication US20250354195A1, “METHOD OF SCREENING” (UNIVERSITY OF DUNDEE, priority 2024, published 2025)

Molecular target: T1, GSK3β (Homo sapiens, UniProt P49841+Q96SW2)
T1 construct: genetically engineered using CRISPR/Cas9 technology to endogenously tag GSK3p protein with HiBiT tag at the C-terminus; host or cells: HEK293 cells, CRISPR/Cas9 knock-in of HiBiT at the endogenous GSK3B locus
Assay: High throughput screening for GSK3β-HiBiT targeted degradation (Nano-Glo HiBiT Lytic luminescence)
Type: cell-based
Conditions: HEK293 cells with endogenously HiBiT-tagged GSK3β, 24 h incubation, products of one-pot plate array (FIG. 1, Method A); for DC50: 0.01-30 μM, read-out: DC50 (half-maximal degradation concentration)
Protocol: High throughput Screening for GSK3 β-HiBiTL: Test compounds were transferred into Echo plate (Beckman, 001-12782, Echo LDV384) using BRAVO automated liquid handling platform which serves as source plate (10 mM stocks in DMSO). Serial dilutions of the compounds were done using Echo550 liquid handler as 30 μM, 10 μM, 3 μM, 1 μM, 0.3 μM, 0.1 μM, 0.03 μM and 0.01 μM in final concentrations in assay plates. One column of each assay plate was reserved for DMSO control treatments. After compounds were serially diluted in assay plates, HEK293 cells (CRL-1573, ATCC) genetically engineered using CRISPR/Cas9 technology to endogenously tag GSK3p protein with HiBiT tag at the C-terminus (Schwinn et al., 2018, CRISPR-mediated tagging of endogenous proteins with a luminescent peptide, ACS Chem. Biol., 13(2), 467-74) were seeded at a density of 5000 cells/well in 50 μL complete media in 384-well TC-grade white plates (Perkin Elmer, Culturplate, 6007619) with the help of Multidrop Combi liquid dispenser and cells were incubated for 24 h with compounds at 37° C. in humidified incubators with 5% CO2. At the end of the treatment, equal volume of Nano-Glo HiBiT Lytic reagent (Promega N3030) supplied with Nano-Glo HiBiT Lytic substrate and LgBiT Protein were added into each well according to manufacturer's instructions, and cells were incubated on an orbital shaker for 15 seconds and for a further 15 minutes at room temperature. Luminescence signals were measured in an appropriate plate reader (PHERAstar FSX, BMG Labtech) (Dixon et al., 2016, NanoLuc complementation reporter optimized for accurate measurement of protein interactions in cells, ACS Chem. Biol., 11, 400-8). Changes in protein abundance upon compound treatment were further analysed by normalising raw luminescence values to DMSO values and fold changes were plotted using for parameter logistic regression with GraphPad Prism (10.1.2).
Furthermore, the present investigators have shown that bifunctional compounds manufactured using the method of the present disclosure may be effective in the uses of bifunctional compounds, for example as PROTACs in targeted protein degradation (TPD). […] GSK3p was targeted for degradation using a binder for GSK3p, and a binder for CRBN; the binders were comprised in molecules comprising moieties for reacting with the orthogonally reactive moieties of the linker. […] The “identifier” identifies the well of the multi-well plate that has been sampled, e.g., AHD2B-1-A1 relates to the top left well in FIG. 1. The DC50 provides an indication of the potency of the bifunctional compound in targeted degradation; Dmax provides an indication of the maximum possible degradation. The use of these metrics is further described in Flexible Fitting of PROTAC Concentration-Response Curves with Changepoint Gaussian Processes, Semenova et al., SLAS Discovery, 2021, 26, 1212-1224.

T1 sequence (P49841 whole entry): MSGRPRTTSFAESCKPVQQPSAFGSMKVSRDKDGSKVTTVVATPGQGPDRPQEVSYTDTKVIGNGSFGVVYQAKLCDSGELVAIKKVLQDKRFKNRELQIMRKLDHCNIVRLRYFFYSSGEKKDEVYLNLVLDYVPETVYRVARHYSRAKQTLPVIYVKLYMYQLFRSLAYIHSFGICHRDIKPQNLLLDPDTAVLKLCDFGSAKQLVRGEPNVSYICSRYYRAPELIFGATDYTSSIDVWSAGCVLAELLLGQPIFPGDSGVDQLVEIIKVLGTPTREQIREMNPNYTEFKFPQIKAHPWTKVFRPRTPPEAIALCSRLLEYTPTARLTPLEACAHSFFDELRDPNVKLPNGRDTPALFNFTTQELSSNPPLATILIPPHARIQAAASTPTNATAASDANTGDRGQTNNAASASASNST
T1 sequence (Q96SW2 whole entry): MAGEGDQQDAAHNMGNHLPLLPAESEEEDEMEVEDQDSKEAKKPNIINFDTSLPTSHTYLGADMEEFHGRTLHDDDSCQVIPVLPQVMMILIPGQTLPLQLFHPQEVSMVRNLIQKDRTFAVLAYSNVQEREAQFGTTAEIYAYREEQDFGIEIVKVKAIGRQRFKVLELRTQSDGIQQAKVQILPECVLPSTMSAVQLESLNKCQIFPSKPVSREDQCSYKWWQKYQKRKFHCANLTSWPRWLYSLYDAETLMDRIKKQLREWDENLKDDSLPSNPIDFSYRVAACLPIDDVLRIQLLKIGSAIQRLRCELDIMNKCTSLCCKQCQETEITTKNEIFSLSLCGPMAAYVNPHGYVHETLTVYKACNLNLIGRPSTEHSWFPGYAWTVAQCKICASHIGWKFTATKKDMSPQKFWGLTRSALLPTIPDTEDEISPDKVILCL
T1 sequence (Q16531 whole entry partner): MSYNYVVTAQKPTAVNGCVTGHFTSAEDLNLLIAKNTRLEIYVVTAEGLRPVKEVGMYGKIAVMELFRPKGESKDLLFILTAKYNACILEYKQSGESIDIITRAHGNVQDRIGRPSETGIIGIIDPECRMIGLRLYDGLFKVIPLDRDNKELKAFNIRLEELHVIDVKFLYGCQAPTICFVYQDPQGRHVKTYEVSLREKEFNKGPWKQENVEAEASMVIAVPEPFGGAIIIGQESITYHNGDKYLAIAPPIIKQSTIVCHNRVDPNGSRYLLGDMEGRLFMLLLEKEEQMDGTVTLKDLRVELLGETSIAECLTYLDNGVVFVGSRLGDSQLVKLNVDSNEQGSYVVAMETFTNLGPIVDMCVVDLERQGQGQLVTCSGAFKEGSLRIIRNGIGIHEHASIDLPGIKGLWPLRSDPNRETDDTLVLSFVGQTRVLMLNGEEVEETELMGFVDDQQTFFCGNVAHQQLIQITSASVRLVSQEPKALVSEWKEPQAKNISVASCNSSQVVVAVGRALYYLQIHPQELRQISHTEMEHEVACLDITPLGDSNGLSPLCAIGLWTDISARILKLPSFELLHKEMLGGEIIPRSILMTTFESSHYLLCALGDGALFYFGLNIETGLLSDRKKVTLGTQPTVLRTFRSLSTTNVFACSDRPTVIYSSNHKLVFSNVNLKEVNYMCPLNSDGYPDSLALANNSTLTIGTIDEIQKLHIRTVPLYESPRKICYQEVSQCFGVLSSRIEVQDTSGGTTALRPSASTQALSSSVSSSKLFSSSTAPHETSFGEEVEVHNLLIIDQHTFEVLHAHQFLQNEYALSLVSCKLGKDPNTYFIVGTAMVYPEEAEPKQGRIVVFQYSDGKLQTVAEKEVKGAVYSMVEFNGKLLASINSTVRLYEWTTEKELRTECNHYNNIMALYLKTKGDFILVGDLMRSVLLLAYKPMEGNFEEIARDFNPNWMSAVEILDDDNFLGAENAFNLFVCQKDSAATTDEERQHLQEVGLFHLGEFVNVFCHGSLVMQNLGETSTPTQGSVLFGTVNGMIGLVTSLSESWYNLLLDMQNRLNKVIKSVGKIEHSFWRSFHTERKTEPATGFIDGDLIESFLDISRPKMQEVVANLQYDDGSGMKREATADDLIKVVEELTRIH

DC50 [µM]	Dmax (maximal effect) [%]	SMILES
> 10	<30	COc1ccc(-c2ocnc2C(=O)NCCCn2cc(-c3ccc(CN4CCN(Cc5ccc(C(=O)NC6CCC(=O)NC6=O)nc5)CC4)cn3)nn2)cc1Cl (stereo not drawn) [AHD2B-1-F2]
> 10	<30	COc1ccc(-c2ocnc2C(=O)NCCCn2cc(CCCOc3ccc(CN4CCN(Cc5cccc(N6CCC(=O)NC6=O)c5)CC4)cc3)nn2)cc1Cl [AHD2B-1-A4]
1.1	34	COc1ccc(-c2ocnc2C(=O)NCCCn2cc(COc3ccc(CN4CCC5(C4)CN(Cc4ccc(C(=O)NC6CCC(=O)NC6=O)nc4)C5)cc3)nn2)cc1Cl (stereo not drawn) [AHD2B-1-F6]
